The subject of one assay is Male C57/BL6 mice. As to the kind of experiment: MPTP animal model (neurobehavioral outcome). Format: in vivo. Particulars: 30 mg/kg/day ip; for functional deficit produced by MPTP: days 1-3; for functional outcome versus vehicle treated animals: days 1 and 2, comparable to negative control group. The protocol: In vivo evaluation is carried out using mice that have been treated with 1-methyl-4-phenyl-1,2,3,6-tetrahydropyridine (MPTP), a neurotoxin. […] In a number of species, including humans, […] and rodents, MPTP produces an irreversible and severe parkinsonian syndrome which includes virtually all the clinical features of the disease.
Male C57/BL6 mice (Harlan, Ind.), weight 25-30 g, were used in all studies. MPTP-HCl (Sigma) was administered i.p. according to one of the following protocols. The maximum volume which was given per injection is 200 μL. In all studies, animals were euthanized with carbon dioxide and, brains were removed for subsequent determination of dopamine depletion where appropriate.
Animals received 25 mg/kg of MPTP once a day for 5 consecutive days. The end point was 2 days after the final dose.
Animals received 4×20 mg/kg of MPTP at 2 hour intervals. The end point was at either 7 or 14 days.
Animals received 2×40 mg/kg of MPTP with this repeated 16 hours later. The end point was at either 14 or 28 days.
Animals received 25 mg/kg of MPTP, given twice weekly for 5 weeks. The end point was either 1, 3 or 24 weeks after the final dose.
Compound efficacy was examined with the use of neurobehavioral models. These models allowed the determination of a given compound's ability to reverse the motor deficits seen with MPTP treatment.
All animals received pre-training for the individual model and a baseline reading was obtained one day prior to the commencement of MPTP treatment.
The open field test was carried out in a clear, acrylic open box 60 cm×60 cm. The base of the box was marked into a 5×5 grid of […] squares. Animals were individually placed in the box and allowed to roam free. The number of squares an animal crossed in a 90 second time period was recorded. In order to be scored, the animal must either have had all four limbs within a given square or, all four limbs must have left a given square.
A tactile stimulus (0.5×0.5 cm square of “sticky tape”) was applied to each side of the animal's face and the time taken to remove it is recorded. The following measurements were recorded: • a. Latency to contact left side tape • b. Latency to contact right side tape • c. Order of side contacted (left vs. right) • d. Latency to remove left side tape • e. Latency to remove right side tape Pole Test
A rough surfaced metal pole (diameter 8 mm, height 50 cm) protruding from a cage filled with animal bedding was used for this test. Animals were placed head upwards at the top of the pole. They were required to turn and descend face downwards and the time taken for this was recorded (latency to reach bedding). Timing was started when the individual animal gripped the top of the pole and was stopped when all four limbs contacted the bedding.
All test compounds were administered ip. The maximum volume which was given per injection was 200 μL. Compounds were dosed up to twice daily, two days prior and 7 days post MPTP treatment.
A baseline reading was taken for each animal one day prior to MPTP treatment. All subsequent readings were normalized to the individual animal's baseline. Values were expressed as a percent baseline.
Data was percent baseline and expressed as mean±std dev: […]
Compound and vehicle given for 9 days in total, 2 days prior to MPTP and 7 days after MPTP treatment. L-DOPA given 1 hour prior to the pole test, each day.

In the next assay the test system is FRDA fibroblasts. Kind of assay: FRDA fibroblast assay for protection from oxidative stress. The class given is cell-based. As to conditions: Homo sapiens, 24 h preincubation, 1 mM BSO, compared to untreated FRDA fibroblasts, read-out: EC50 for reduction of cell death in FRDA fibroblasts. From the text:
A cellular assay using FRDA-patient derived fibroblasts (as described by Jauslin, M L et al, Human Molecular Genetics 11; 3055-3063 (2002)); is used to determine the cell protecting effect of the test compounds by analyzing survival of dermal fibroblasts taken from FRDA patients and unaffected normal donors under conditions of partial GSH depletion. Exposure of FRDA fibroblasts to BSO (L-buthionine (S,R)-sulfoximine) under conditions of restricted selenium causes depletion of cellular glutathione (GSH) and severe plasma membrane damage leading to cell death. Preincubation with the test compounds before the addition of BSO is used to determine if they can protect FRDA cells from BSO-mediated cell death.
Primary fibroblasts were derived from donors with a molecular diagnosis of FRDA and control donors with no mitochondrial disease. Lines F2, C2 and C3 were obtained from Coriell Cell Repositories (Camden, N.J., USA; catalog #'s GM04078, GM 08402 and GM08399, respectively). All cell types were diagnosed at the molecular level for intronic GAA triplet repeat length in the trataxin gene using a PCR-based method, according to methods known in the art. […] The cells were seeded in microtiter plates at a density of 4000 cells per 100 μl in growth medium consisting of 25% (v/v) M199 EBS and 64% (v/v) MEM EBS without phenol red (Bioconcept, Allschwil, Switzerland) supplemented with 10% (v/v) fetal calf serum (PAA Laboratories, Linz, Austria), 100 U/ml penicillin, 100 μg/ml streptomycin (PAA Laboratories, Linz, Austria), 10 μg/ml insulin (Sigma, Buchs, Switzerland), 10 μg/ml EGF (Sigma, Buchs, Switzerland), 10 μg/ml bFGF (PreproTech, Rocky Hill, N.J., USA) and 2 mM glutamine (Sigma, Buchs, Switzerland). The cells were incubated in the presence of the various test compounds for 24 h before addition of 1 mM BSO (L-buthionine (S,R)-sulfoximine).
Cell viability was measured after the first signs of toxicity appeared in the BSO-treated controls (typically after 16-48 h). The cells were stained for 60 min at room temperature in PBS with 1.2 μm calceinAM and 4 μm ethidium homodimer (Live/Dead assay, Molecular Probes, Eugene, Oreg., USA). Fluorescence intensity was measured with a Gemini Spectramax XS spectrofluorimeter (Molecular Devices, Sunnyvale, Calif., USA) using excitation and emission wavelengths of 485 and 525 nm, respectively.

The subject of assay [1] is dopaminergic neuronal cell line. As to the kind of experiment: High glutamate-induced oxidative stress assay (HGOS). The class given is cell-based. Particulars: Mus musculus; 30 mM glutamate, 16 hrs, Cell Tracker Green; read-out: EC50 for protection against HGOS cell injury and cell death. From the text:
Protection against redox stress can be further evaluated in cell culture using high glutamate induced oxidative stress (HGOS) in mouse dopaminergic cell lines. The cytotoxic effect of glutamate is not due to excitotoxicity, as this cell line is devoid of inotropic glutamate receptors. Rather, the glutamate-induced toxicity of dopaminergic cells is associated with an inhibition of cystine transport which subsequently leads to depletion of intracellular glutathione (GSH) levels (Murphy T. H., et al. Neuron 2, 1547-1558, 1989), activation of neuronal 12-lipoxygenase (Li, Y. et al., Neuron 19,453-463, 1997), increased ROS production (Tan S. et al., J. Cell Biol. 141, 1423-1432, 1998) and elevated intracellular Ca^2+ (Li, Y. et al., see supra). Some molecules were measured for their ability to protect such cells against glutamate-induced stress and the assay is detailed in Examples.
This procedure was used to induce high glutamate-induced oxidative stress (HGOS) in a dopaminergic neuronal cell line. Using this assay the potency and efficacy of test articles against HGOS neuronal cell injury and cell death was established in a high throughput manner.
The cells were seeded into 96-well plates at a density of 2000 per well and left to grow for 72 hours in a 33° C. incubator with 5% CO2 in air atmosphere. The passage number of the cells for each assay experiment were no later than p11 in order to minimize experimental variation.
All compounds were dissolved in DMEM-No Glu containing 1 mM glucose, 30 mM glutamate and 1× Pen/Strep. DMEM-No Glu with 1 mM glucose and 1×P/S was used as the negative control, DMEM-No Glucose with 1 mM glucose, […] was used as a positive control and 100 μM Glutathione was added to the positive control as a standard. All of the procedures for this involving the making and dilution of compounds were performed using aseptic conditions and with minimal light.
The plates were removed from the incubator and examined under the microscope for morphological appearance and density. Using an aseptic technique and an 8-channel aspirator the media was carefully removed from the cells and replaced with 200 μl of 1×HBSS. This was done as quickly as possible to prevent the cells drying out. The plates were then placed in the humidified 37° C. incubators of the Biomek 2000 Side Loader. Four plates were washed at a time so as to minimize the time that the cells were sitting in 1×HBSS prior to addition of the compound test solution.
The Beckman Biomek workstations were used to load the compounds and controls from the mother plates onto the cell plates that were prewashed with HBSS under sterile conditions. The plates were incubated in the upper HTS incubator at 37° C. in 5% CO2 for exactly 16 hrs. The following day, using the Beckman Biomek workstations, the plates were removed from the incubator. Using Cell Tracker Addition, the compounds were removed from the plates, washed once with […] of pre-warmed 1×HBSS and then 100 μL of 5 μM Cell Tracker Green was added to each well. The plates were incubated at 37° C. for 30 min to allow the dye to enter the cell and be cleaved by the esterases. After washing the cells twice with prewarmed 1×HBSS, the plates were read with the 485 excitation; 538 emission filter pair on a Fluoroskan.

Molecules are shown by their SMILES.

Take `Cc1c(O)cc2c(c1C)OC(C)(C)C=C2` [2,2,7,8-Tetramethyl-2H-chromen-6-ol]: in the assay with Male C57/BL6 mice, the “functional deficit produced by MPTP” value is recorded as “significantly reduced” and the “functional outcome versus vehicle treated animals” value is given as “significantly better”. In addition, the 50% effective concentration (EC50) (in general, the concentration giving half of the maximal effect) in the assay on FRDA fibroblasts lay in the range of 0.01 to 6 µM.
`CC(C)=CCc1c(O)c(C)c(C)c2c1CCC(C)(C)O2` [2,2,7,8-Tetramethyl-5-(3-methyl-but-2-enyl)-chroman-6-ol]: in the assay on Male C57/BL6 mice, the “functional deficit produced by MPTP” value is “significantly reduced” and the “functional outcome versus vehicle treated animals” value is listed as “significantly better”.
In the case of `COC(=O)CCC1(C)CCc2c(Br)c(O)c(C)c(C)c2O1` (centres unmarked) [3-(5-Bromo-6-hydroxy-2,7,8-trimethyl-chroman-2-yl)-propionic acid methyl ester], in the assay on Male C57/BL6 mice, the “functional deficit produced by MPTP” value is on record as “significantly reduced” and the “functional outcome versus vehicle treated animals” value is given as “significantly better”. For the same compound, in assay [1], the concentration giving a half-maximal response (EC50) was at most 5 µM. Besides, the EC50 with FRDA fibroblasts was in the range of 0.01 to 6 µM.
Take `Cc1cc(O)cc2c1OC(C)(CCC(=O)O)CC2` (centres unmarked) [3-(6-Hydroxy-2,8-dimethyl-chroman-2-yl)-propionic acid]: in the assay on Male C57/BL6 mice, the “functional deficit produced by MPTP” value is recorded as “significantly reduced” and the “functional outcome versus vehicle treated animals” value is recorded as “significantly better”. Further, the 50% effective concentration (EC50) with FRDA fibroblasts fell in the range of 0.01 to 6 µM.
Take `CC(C)=CCc1c(O)c(C)c(C)c2c1CCC(C)(CCC(=O)O)O2` (centres unmarked) [3-[6-Hydroxy-2,7,8-trimethyl-5-(3-methyl-but-2-enyl)-chroman-2-yl]-propionic acid]: in the assay on Male C57/BL6 mice, the “functional deficit produced by MPTP” value was “significantly reduced” and the “functional outcome versus vehicle treated animals” value is “significantly better”.
In the case of `COC(=O)CSCc1c(O)c(C)c(C)c2c1CCC(C)(C)O2` [(6-Hydroxy-2,2,7,8-tetramethyl-chroman-5-ylmethylsulfanyl)-acetic acid methyl ester], in the assay on Male C57/BL6 mice, the “functional deficit produced by MPTP” value is recorded as “significantly reduced” and the “functional outcome versus vehicle treated animals” value is “significantly better”. Moreover, in assay [1], the EC50 is at most 5 µM.
